Earlier results on two compounds are cited in patent US20220257611A1 (APTYS Pharmaceuticals SAS, priority 2019, published 2022).

For data set [1] the following is noted: in vivo.
The conditions of data set [2]: in vivo. This is another data set of the same source.

As for `CC(=O)Nc1ccc(O)cc1` [acetaminophen, N-acetyl-p-amino-phenol], the “median effective analgesic dose (median value and 95% confidence interval)” value in data set [1] is listed as 500 mg.

Take `CN1CCOC(c2ccccc2)c2ccccc2C1` (centres unmarked) [nefopam, 5-methyl-1-phenyl-1,3,4,6-tetrahydro-2,5-benzoxazocine]: the elimination half-life result in data set [2] is listed as “four”.
